Here are results for five compounds from US10801024B2, “Inhibition of lncRNA HOTAIR and related materials and methods” (Indiana University Research and Technology Corporation, priority 2015, dated 2020).

A value given as a limit tells only on which side of the number the result lay.

For data set [1], the system named is A2780_CR5. Briefly: Survival assay after inhibiting HOTAIR and/or EZH2. The data set is classed as cell-based. As to conditions: dsiRNA targeting HOTAIR combined with GSK126; platinum-resistant cells. The procedure: In one exemplary method, the effect of inhibiting both HOTAIR and EZH2 on cancer cell survival was investigated. A highly platinum-resistant ovarian cancer cell line (A2780_CR5) was treated with dsiRNA targeting HOTAIR and/or a pharmacological inhibitor of EZH2 (GSK126), followed by survival assays. As an additive (P<0.05) effect of inhibiting HOTAIR-EZH2 on drug sensitivity and survival was observed (versus inhibiting either factor alone; FIG. 2A), it was next of interest to target the HOTAIR-EZH2 interaction by targeting the 89-mer minimum interacting region of HOTAIR, which has been shown. mFold (Zuker, M., Mfold web server for nucleic acid folding and hybridization prediction. Nucleic acids research, 2003. 31(13):3406-3415, incorporated herein by reference in its entirety) was used to validate the predicted secondary structure of this site, observing a highly predicted, single-stranded region in all 19 predicted structures, which complemented previous such structures (FIG. 3A).

For data set [2], the system named is A2780_CR5. The data set can be described thus: Cell invasion assay (matrigel). The data set is classed as cell-based. To be noted: FIGS. 5D-5E (A2780_CR5 and SKBR-3). The procedure:
In another exemplary method, ovarian cancer cells and breast cancer cells were treated with PNA3 or control PNA. Decreased (P<0.05) invasion of A2780_CR5 (2-fold, FIG. 5D), Kuramochi (0.6-fold, FIG. 9A) and SKBR-3 (2-fold, FIG. 5E) was observed, and the effect of PNA3 on cell invasion was essentially similar to knocking-down HOTAIR expression using siRNA (FIGS. 5D-5E). PNA3 or control PNA had no effect on A2780p and MDA-MB-231 cell invasion (FIGS. 9B-9C).
Cells were grown in 6 cm culture plates until 70% confluence and treated with either PNA3 or control PNA (1 μM final) for 24 hr. Next day, the plates were trypsinized, serially diluted and 50,000 cells were seeded inside a matrigel invasion chamber insert (Corning, Cat #354480) in serum-free media supplemented with 0.1% BSA. Media supplemented with 20% FBS was added to the bottom of the well and 48 hrs later, cells were fixed and dyed using Wright-Giemsa method (Hema 3 Stat pack, Cat #23-122-929) and invasion was counted under a light microscope at 20× magnification. Relative cell invasion was measured by dividing the control number of invaded cells by the PNA-treated samples.

Data set [3] concerns HOTAIR expression. The data set can be described thus: Cytokine/chemokine screen, HOTAIR levels. The format is cell-based. As to conditions: A2780 p cells, 10 ng/mL. How it is done:
FIG. 11A is a line graph showing changes in HOTAIR target gene expression in A2780 p cells treated with IGF, TGF-β, EGF, IL-1α, or TNF-α (10 ng/mL). Asterisks indicate P<0.05 (*) or P<0.01 (**).
As a positive association between HOTAIR and the master transcription factor NF-κB has been reported. […] In an exemplary method, a cytokine/chemokine screen was performed, followed by the measurement of HOTAIR levels. Of the cytokines examined, HOTAIR expression was increased (P<0.05) by TNF-α (>15-fold) and TGF-β (5-fold) compared to control (FIG. 11A). To further confirm HOTAIR induction of NF-κB, a luciferase reporter construct containing the E-selectin promoter was used (861 base pairs containing 3 canonical NF-κB-p65-binding sites as a positive control; FIG. 3B) (Ozes, O. N., et al., NF-κB activation by tumour necrosis factor requires the Akt serine-threonine kinase. Nature, 1999. 401(6748):82-85, incorporated herein by reference in its entirety) and a 1.4-fold increase (p<0.05) in luciferase activity was observed by ectopic overexpression of HOTAIR compared to vector control (FIG. 11B), which was decreased (P<0.05) by PNA3 (FIG. 11B). PNA3 treatment of breast and ovarian cancer cells decreased (P<0.05) IL-6 secretion into the media (FIG. 11C). […]

In data set [4] the test system is IL-6, MMP-9 and ALDH1A1. The data set can be described thus: Mouse xenograft: blood IL-6 (ELISA) and tumor expression of HOTAIR targets. To be noted: CDDP alone; after the second bi-weekly treatment. The format is in vivo, mice. (In an ELISA, binding on a coated surface is turned into a signal by an enzyme label.)
Data set [5] in a line: Mouse xenograft: body weight, spleen and liver weight, histology. The format is in vivo. How it is done:
In another exemplary method, to investigate anti-tumor properties of pHLIP-PNA3 in vivo, BALB/C mice were subcutaneously injected with CDDP-resistant A2780_CR5 (2×10^6 cells). Once tumors reached ˜200 mm^3, mice were injected intravenously (two times per week for 2 weeks) with pHLIP-PNA3 (1 mg/kg), pHLIP-control PNA (1 mg/kg), and/or CDDP (2 mg/kg i.p.) at indicated times (FIG. 14A). Tumor volume was reduced (p=0.02) in mice co-administered pHLIP-PNA3+CDDP compared to pHLIP-control PNA+CDDP (FIG. 13A). Tumor volume in mice treated with either pHLIP-PNA alone was similar to vehicle-treated mice (FIG. 14A). Importantly, survival of mice treated with pHLIP-PNA3 vs. mock was increased 1.6-fold (39 vs. 25 days; FIG. 13B), and body weight was similar among groups (FIG. 14B), showing that PNAs are non-toxic in vivo. […]
All animal studies adhered to ethical regulations and protocols. To assess tumorigenicity of cells, cultured A2780_CR5 cells were washed with PBS trypsinized and counted with trypan blue, re-suspended in 1:1 PBS/matrigel (BD Bioscience) and 2×10^6 cells were injected subcutaneously into the left flank of 3- to 4-week-old female nude athymic mice (BALB/c-nu/nu; Harlan, Indianapolis, Ind.). […] Tumor length (l) and width (w) were measured biweekly using digital calipers and tumor volume (v) was calculated as v=½×1×w2. […]

In data set [6] the test system is A2780_CR5. Briefly: Mouse xenograft: tumor volume and survival. The data set is classed as in vivo. To be noted: CDDP-treated mice.
Method: All animal studies adhered to ethical regulations and protocols. To assess tumorigenicity of cells, cultured A2780_CR5 cells were washed with PBS trypsinized and counted with trypan blue, re-suspended in 1:1 PBS/matrigel (BD Bioscience) and 2×10^6 cells were injected subcutaneously into the left flank of 3- to 4-week-old female nude athymic mice (BALB/c-nu/nu; Harlan, Indianapolis, Ind.). Engrafted mice (n=6 per group) were inspected three times per week for tumor appearance by visual observation and palpation. Once tumors were ˜200 mm^3, mice were treated with either CDDP (2 mg kg−1) or PNA (1 mg kg−1) or both CDDP and PNA twice per week for two weeks. Blood samples were collected by puncturing the left lateral saphenous vein with a needle and collected using a capillary tube. Tumor length (l) and width (w) were measured biweekly using digital calipers and tumor volume (v) was calculated as v=½×1×w2. No randomization was used and no animals were excluded from the final data. […]

Consider “dsiRNA targeting HOTAIR: dsiRNA targeting human HOTAIR, sense SEQ ID NO: 22, antisense SEQ ID NO: 23 (sense UUCUAAAUCCGUUCCAUUCCACUGCGA; antisense GCAGUGGAAUGGAACGGAUUUAGAA; antisense strand carries a 5'-phosphate, other chemistry not given here, further chemistry not given here)”, for which, in data set [1], the “effect on drug sensitivity and survival of inhibiting both HOTAIR and EZH2 versus either alone” value is given as “additive”. In data set [2], the “cell invasion, in words” value is listed as “decrease”.
As for `CC[C@H](C)n1cc(C)c2c(C(=O)NCc3c(C)cc(C)[nH]c3=O)cc(-c3ccc(N4CCNCC4)nc3)cc21` [GSK126], in data set [1], the “effect on drug sensitivity and survival of inhibiting both HOTAIR and EZH2 versus either alone” value was “additive”.
Take TGF-β: in data set [3], the “HOTAIR expression increase compared to control” value was 5 fold.
For the compound `[NH2][Pt]([NH2])([Cl])[Cl]` [CDDP, cisplatin], the “blood IL-6 levels compared to controls” value in data set [4] was “increased”. Besides, the “spleen size compared to mock treated” value in data set [5] (CDDP treatment) is recorded as “increased”. The liver size result in data set [5] (similar trend as spleen) is “none were statistically significant”. For the same compound, the “H&E slides of tumors” value in data set [6] is “fewer cells”.
As for TNF-α, the “HOTAIR expression increase compared to control” value in data set [3] is above 15 fold.
